Source: ChEMBL document CHEMBL2216752, “Carnitine palmitoyltransferase (CPT) modulators: a medicinal chemistry perspective on 35 years of research” (J Med Chem, 2011)

Assays:
[1] = biological target: T1, Carnitine O-palmitoyltransferase 2, mitochondrial (Rattus norvegicus, UniProt P18886); test: Inhibition of CPT2 in rat mitochondria using [3H]carnitine by radiometric method
T1 sequence (P18886 whole entry): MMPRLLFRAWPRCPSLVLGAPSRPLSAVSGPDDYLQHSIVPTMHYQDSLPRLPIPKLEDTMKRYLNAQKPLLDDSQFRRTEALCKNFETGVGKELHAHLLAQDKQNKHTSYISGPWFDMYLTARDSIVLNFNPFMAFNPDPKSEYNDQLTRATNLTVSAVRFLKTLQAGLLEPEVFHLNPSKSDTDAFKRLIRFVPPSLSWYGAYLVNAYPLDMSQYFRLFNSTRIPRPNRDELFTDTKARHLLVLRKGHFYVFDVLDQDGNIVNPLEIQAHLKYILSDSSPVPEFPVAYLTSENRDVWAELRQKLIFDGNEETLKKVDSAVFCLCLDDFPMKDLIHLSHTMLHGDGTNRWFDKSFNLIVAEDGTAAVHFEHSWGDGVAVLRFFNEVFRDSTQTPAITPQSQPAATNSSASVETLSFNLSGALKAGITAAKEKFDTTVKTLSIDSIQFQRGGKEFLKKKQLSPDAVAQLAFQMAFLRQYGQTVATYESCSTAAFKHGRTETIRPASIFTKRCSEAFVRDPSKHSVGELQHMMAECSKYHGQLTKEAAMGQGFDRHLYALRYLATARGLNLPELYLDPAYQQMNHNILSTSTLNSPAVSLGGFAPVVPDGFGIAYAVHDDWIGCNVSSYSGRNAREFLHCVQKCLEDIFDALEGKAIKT

[2] = biological target: T2, Carnitine O-palmitoyltransferase 1, muscle isoform (Homo sapiens, UniProt Q92523); test: Inhibition of human CPT1B
T2 sequence (Q92523 whole entry): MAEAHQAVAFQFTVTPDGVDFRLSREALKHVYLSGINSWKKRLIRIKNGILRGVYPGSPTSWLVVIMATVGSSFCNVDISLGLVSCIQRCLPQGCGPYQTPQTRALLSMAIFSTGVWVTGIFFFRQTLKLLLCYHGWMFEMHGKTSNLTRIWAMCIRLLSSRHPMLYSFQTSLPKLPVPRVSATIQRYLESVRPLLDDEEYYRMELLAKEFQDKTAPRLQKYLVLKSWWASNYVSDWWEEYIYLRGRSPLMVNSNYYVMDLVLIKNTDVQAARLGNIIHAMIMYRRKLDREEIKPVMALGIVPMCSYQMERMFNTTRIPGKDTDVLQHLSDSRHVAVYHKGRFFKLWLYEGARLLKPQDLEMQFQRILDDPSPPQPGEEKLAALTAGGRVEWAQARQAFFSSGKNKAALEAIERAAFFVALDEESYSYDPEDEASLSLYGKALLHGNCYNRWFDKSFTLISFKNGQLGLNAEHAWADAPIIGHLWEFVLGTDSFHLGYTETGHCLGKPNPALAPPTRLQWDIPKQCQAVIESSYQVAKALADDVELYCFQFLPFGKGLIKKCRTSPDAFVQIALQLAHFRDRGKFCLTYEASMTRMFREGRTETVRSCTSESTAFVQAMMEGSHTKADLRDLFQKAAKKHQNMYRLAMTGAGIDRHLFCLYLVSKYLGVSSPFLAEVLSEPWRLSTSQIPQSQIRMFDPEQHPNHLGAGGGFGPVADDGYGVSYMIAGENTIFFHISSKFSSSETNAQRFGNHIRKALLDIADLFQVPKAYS

[3] = biological target: T3, Carnitine O-palmitoyltransferase 1, liver isoform (Rattus norvegicus, UniProt P32198); test: Inhibition of CPT1 in rat liver mitochondria using [3H]carnitine by radiometric method
T3 sequence (P32198 whole entry): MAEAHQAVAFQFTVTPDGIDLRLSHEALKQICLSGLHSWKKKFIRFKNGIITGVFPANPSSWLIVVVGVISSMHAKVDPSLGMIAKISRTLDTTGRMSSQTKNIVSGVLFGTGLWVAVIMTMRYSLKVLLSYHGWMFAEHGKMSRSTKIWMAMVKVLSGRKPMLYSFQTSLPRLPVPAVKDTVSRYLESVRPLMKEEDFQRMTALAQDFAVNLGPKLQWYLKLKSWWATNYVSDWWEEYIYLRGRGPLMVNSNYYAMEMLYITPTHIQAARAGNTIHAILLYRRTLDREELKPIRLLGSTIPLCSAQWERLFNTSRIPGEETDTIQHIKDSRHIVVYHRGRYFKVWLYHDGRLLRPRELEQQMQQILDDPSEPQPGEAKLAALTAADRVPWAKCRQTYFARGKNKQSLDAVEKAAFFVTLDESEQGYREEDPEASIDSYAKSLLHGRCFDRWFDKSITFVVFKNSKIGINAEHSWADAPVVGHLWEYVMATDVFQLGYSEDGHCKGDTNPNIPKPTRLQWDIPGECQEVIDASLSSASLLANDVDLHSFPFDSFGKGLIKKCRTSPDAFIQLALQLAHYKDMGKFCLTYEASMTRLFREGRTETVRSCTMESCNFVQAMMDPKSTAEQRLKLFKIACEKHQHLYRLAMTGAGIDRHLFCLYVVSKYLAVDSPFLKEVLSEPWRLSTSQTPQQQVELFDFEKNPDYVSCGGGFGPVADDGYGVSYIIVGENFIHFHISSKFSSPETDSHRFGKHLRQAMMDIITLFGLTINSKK

[4] = Inhibition of rat FAO
[5] = Inhibition of human FAO
[6] = biological target: T4, Carnitine O-palmitoyltransferase 2, mitochondrial (Homo sapiens, UniProt P23786); test: Inhibition of human CPT2
T4 sequence (P23786 whole entry): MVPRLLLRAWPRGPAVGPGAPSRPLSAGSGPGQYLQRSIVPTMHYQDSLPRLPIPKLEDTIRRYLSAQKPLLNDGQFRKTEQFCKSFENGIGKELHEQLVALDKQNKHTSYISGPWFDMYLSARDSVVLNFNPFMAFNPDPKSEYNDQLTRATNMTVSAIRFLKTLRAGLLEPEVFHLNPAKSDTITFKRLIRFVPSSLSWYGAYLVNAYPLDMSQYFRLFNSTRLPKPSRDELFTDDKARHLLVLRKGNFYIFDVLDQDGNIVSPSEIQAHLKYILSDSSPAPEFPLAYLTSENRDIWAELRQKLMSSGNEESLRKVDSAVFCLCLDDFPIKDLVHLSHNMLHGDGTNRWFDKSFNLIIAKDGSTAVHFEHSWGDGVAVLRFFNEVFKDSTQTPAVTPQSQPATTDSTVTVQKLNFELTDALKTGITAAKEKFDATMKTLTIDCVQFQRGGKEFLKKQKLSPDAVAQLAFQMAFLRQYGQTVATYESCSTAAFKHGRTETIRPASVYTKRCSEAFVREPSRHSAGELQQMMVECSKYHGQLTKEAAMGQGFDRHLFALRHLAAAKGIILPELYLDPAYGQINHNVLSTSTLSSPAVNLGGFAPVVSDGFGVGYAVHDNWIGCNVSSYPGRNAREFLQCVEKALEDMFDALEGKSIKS

[7] = biological target: Carnitine O-palmitoyltransferase 1, muscle isoform (Rattus norvegicus) (UniProt Q63704); test: Inhibition of CPT1 in rat cardiac mitochondria using [3H]carnitine by radiometric method
Chain of Carnitine O-palmitoyltransferase 1, muscle isoform (Rattus norvegicus) (Q63704 whole entry, looked up, canonical isoform): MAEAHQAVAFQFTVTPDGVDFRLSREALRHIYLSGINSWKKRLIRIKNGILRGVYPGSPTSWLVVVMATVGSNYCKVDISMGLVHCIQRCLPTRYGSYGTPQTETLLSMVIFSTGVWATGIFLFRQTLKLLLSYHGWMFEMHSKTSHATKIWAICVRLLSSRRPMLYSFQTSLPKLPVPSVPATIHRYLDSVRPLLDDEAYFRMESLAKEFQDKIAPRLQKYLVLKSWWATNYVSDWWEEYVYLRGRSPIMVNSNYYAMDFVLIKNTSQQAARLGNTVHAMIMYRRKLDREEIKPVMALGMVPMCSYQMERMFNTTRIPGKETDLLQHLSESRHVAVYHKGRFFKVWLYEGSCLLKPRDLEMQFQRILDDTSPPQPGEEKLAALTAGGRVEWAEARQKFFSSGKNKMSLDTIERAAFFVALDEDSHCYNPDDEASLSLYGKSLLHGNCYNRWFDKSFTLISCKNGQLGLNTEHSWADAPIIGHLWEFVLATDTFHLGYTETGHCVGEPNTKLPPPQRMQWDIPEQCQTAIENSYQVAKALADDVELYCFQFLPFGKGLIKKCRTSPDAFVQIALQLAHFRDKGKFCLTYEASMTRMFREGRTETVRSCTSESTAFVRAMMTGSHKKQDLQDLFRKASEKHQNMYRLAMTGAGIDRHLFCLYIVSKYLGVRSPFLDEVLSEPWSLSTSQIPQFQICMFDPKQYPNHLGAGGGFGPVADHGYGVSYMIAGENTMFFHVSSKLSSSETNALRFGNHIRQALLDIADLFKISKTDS

[8] = biological target: T5, Carnitine O-palmitoyltransferase 1, liver isoform (Homo sapiens, UniProt P50416); test: Inhibition of human CPT1A
T5 sequence (P50416 whole entry): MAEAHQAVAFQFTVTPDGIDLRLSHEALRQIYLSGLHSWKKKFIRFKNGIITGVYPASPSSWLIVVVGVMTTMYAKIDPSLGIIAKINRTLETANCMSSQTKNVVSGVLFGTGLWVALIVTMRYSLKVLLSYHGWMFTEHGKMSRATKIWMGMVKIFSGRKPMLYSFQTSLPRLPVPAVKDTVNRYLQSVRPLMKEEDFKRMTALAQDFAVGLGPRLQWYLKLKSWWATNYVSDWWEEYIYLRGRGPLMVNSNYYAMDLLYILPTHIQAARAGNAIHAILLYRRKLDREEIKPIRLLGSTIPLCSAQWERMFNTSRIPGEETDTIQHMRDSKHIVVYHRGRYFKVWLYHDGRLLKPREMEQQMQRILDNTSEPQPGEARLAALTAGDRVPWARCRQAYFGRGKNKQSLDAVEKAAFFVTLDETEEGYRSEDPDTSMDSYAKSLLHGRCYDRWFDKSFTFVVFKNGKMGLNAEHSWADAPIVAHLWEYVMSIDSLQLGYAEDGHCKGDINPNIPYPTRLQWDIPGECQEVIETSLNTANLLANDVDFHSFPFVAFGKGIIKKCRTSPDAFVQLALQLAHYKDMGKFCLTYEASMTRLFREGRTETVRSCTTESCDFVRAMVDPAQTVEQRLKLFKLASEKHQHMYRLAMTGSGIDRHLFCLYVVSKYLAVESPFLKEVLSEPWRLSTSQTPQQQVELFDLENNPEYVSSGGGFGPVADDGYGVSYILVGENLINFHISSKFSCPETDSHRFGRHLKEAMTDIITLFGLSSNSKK

Rattus norvegicus [9] = test: Reduction in whole body glucose utilization in Wistar rat at 60 mg/kg, iv over 5.5 hrs; assay type: functional; design: scale not given: the % may be the effect or the level left
Rattus norvegicus [10] = test: Reduction in glucose carbon recycling in Wistar rat at 60 mg/kg, iv over 5.5 hrs; assay type: functional; design: scale not given: the % may be the effect or the level left
Sus scrofa = test: Reduction in plasma glucose in 48 hrs fasted pig at 20 mg, iv measured 5 hrs post dose; assay type: functional; design: scale not given: the % may be the effect or the level left
Rattus norvegicus [11] = test: Reduction in plasma glucose in Wistar rat at 60 mg/kg, iv over 5.5 hrs; assay type: functional; design: scale not given: the % may be the effect or the level left
Rattus norvegicus [12] = test: Reduction in blood 3-OH-butyrate in Wistar rat at 60 mg/kg, iv over 5.5 hrs (reference value: 1 mM); assay type: functional
[13] = biological target: T3, Carnitine O-palmitoyltransferase 1, liver isoform; test: Inhibition of rat CPT1A
[14] = biological target: T1, Carnitine O-palmitoyltransferase 2, mitochondrial; test: Inhibition of rat CPT2
[15] = biological target: Carnitine O-palmitoyltransferase 1, muscle isoform (Rattus norvegicus, UniProt Q63704); test: Inhibition of […] in rat myocardium; assay type: tissue-based
Chain of Carnitine O-palmitoyltransferase 1, muscle isoform (Rattus norvegicus, UniProt Q63704) (Q63704 whole entry, canonical isoform): as the sequence (Q63704 whole entry, looked up, canonical isoform) above

[16] = Inhibition of Phospholipase A2
[17] = Inhibition of FAO
[18] = Inhibition of carnitine palmitoyltransferase in 18 hr fasted rat liver homogenates; assay type: tissue-based
[19] = Inhibition of carnitine palmitoyltransferase in 18 hr fasted rat hepatocytes; assay type: cell-based; conditions: hepatocyte
[20] = biological target: T1, Carnitine O-palmitoyltransferase 2, mitochondrial; test: Inhibition of rat CPT2 in rat mitochondria
[21] = biological target: T3, Carnitine O-palmitoyltransferase 1, liver isoform; test: Inhibition of rat CPT1 in rat mitochondria
[22] = Inhibition of carnitine palmitoyltransferase in 20 hrs fasted Sprague-Dawley rat liver mitochondria assessed as palmitate oxidation by radiometry
Rattus norvegicus [23] = test: Increase in plasma FFA level in fasted Wistar rat at 16 mg/kg, ip; assay type: functional; conditions: route intraperitoneal
[24] = Inhibition of carnitine palmitoyltransferase in rat mitochondria
Rattus norvegicus [25] = test: Increase in plasma TG level in fasted Wistar rat at 16 mg/kg, ip; assay type: functional; conditions: route intraperitoneal
[26] = Inhibition of carnitine palmitoyltransferase in 24 hrs fasted rat liver mitochondria assessed as palmitoylcarnitine oxidation by radiometry
Rattus norvegicus [27] = test: Reduction in plasma glucose level in fasted Wistar rat at 16 mg/kg, ip; assay type: functional; design: scale not given: the % may be the effect or the level left; conditions: route intraperitoneal
Rattus norvegicus [28] = test: Increase in plasma VLDL level in fasted Wistar rat at 16 mg/kg, ip; assay type: functional; conditions: route intraperitoneal
Rattus norvegicus [29] = test: Reduction in palmitate oxidation in rat liver mitochondria at 18 mg/kg, ip administered as single dose measured 24 hrs post dose; assay type: functional; design: scale not given: the % may be the effect or the level left; conditions: route intraperitoneal
[30] = biological target: T1, Carnitine O-palmitoyltransferase 2, mitochondrial; test: Inhibition of CPT2 in 24 hrs fasted rat liver mitochondria assessed as palmitoylcarnitine oxidation by radiometry
[31] = Inhibition of carnitine palmitoyltransferase in 20 hrs fasted Sprague-Dawley rat liver mitochondria assessed as palmitoylcarnitine oxidation by radiometry
Rattus norvegicus [32] = test: Increase in plasma LDL level in fasted Wistar rat at 16 mg/kg, ip; assay type: functional; conditions: route intraperitoneal

Compound: C1CCC(C(CC2CCCCN2)C2CCCCC2)CC1 (configuration not stated) [PERHEXILINE]
- IC50 [1]: 79 µM
- IC50 [2]: > 100 µM
- IC50 [3]: 148 µM
- IC50 [4]: 21.4 µM
- IC50 [5]: 22.4 µM
- IC50 [6]: 72.8 µM
- IC50 [7]: 77 µM
- IC50 [8]: > 100 µM

Compound: O=C(O)C1(CCCCCCOc2ccc(Cl)cc2)CO1 (racemic)
- Activity (Rattus norvegicus [9]): 14%
- Activity (Rattus norvegicus [10]): 30%
- Activity (Sus scrofa): 50%
- Activity (Rattus norvegicus [11]): 25%
- Activity (Rattus norvegicus [12]): 0.03 mM

Compound: CCCCc1ccc(NC(=O)OCCN2CCCCC2CC(C2CCCCC2)C2CCCCC2)cc1 (configuration not stated)
- IC50 [13]: > 10 µM
- IC50 [14]: > 10 µM

Compound: COc1ccc(CN2CCNCC2)c(OC)c1OC [TRIMETAZIDINE]
- IC50 [15]: 1.3 µM
- IC50 [2]: > 100 µM
- IC50 [4]: > 100 µM
- IC50 [5]: 20.5 µM
- IC50 [6]: > 100 µM
- IC50 [8]: > 100 µM

Compound: COC(=O)C1(C(F)CCCCc2ccccc2)CO1 (configuration not stated)
- IC50 [16]: 2.6 µM

Compound: CCCCCCCCCCCCCCCC(=O)N[C@H](CC(=O)[O-])C[N+](C)(C)C [PALMITOYLAMINOCARNITINE]
- IC50 [17]: 0.05 µM
- IC50 [2]: 21.7 µM
- IC50 [18]: 1.3 µM
- IC50 [4]: 0.27 µM
- IC50 [19]: 1.2 µM
- IC50 [5]: 2.8 µM
- IC50 [6]: 0.14 µM
- IC50 [8]: 2.67 µM

Compound: COc1cccc2c1C(=O)c1c(O)c3c(c(O)c1C2=O)C[C@@](O)(C(=O)CO)C[C@@H]3O[C@H]1C[C@H](N)[C@H](O)[C@H](C)O1 [DOXORUBICIN]
- IC50 [20]: > 100 µM
- IC50 [21]: 250 µM

Compound: C[N+](C)(C)C[C@H](N)CC(=O)[O-]
- IC50 [22]: 3.2 µM
- Activity (Rattus norvegicus [23]): 244%
- IC50 [24]: 3.2 µM
- Activity (Rattus norvegicus [25]): 684%
- IC50 [26]: 5.4 µM
- Activity (Rattus norvegicus [27]): 16%
- IC50 [2]: > 100 µM
- Activity (Rattus norvegicus [28]): 1034%
- Activity (Rattus norvegicus [29]): 68%
- IC50 [30]: 0.8 µM
- IC50 [31]: 12 µM
- IC50 [6]: 3.9 µM
- IC50 [14]: 5.1 µM
- Activity (Rattus norvegicus [32]): 88%
- IC50 [8]: 76.4 µM
